Target: T1, ATM (Homo sapiens, UniProt Q13315)
T1 construct: detecting phosphorylation of Chk2 in a human non-small cell lung cancer cell line NCI-H460 (ATCC company); host or cells: NCI-H460 human non-small cell lung cancer cells
Assay: ATM inhibition test (phosphorylation of Chk2 generated by ionizing radiation, AlphaScreen SureFire)
Type: cell-based
Conditions: phosphorylated Chk2 in NCI-H460 cells, ionizing radiation 8Gy, 1 hour after test compound treatment; read-out: ATM inhibitory activity
Procedure, shortened: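 Phosphorylated Chk2 read by AlphaScreen SureFire in human non-small cell lung cancer NCI-H460 cells, 1 hour after 8Gy ionizing radiation at 37° C. Compound added 1 hour before irradiation. Percent inhibition normalised between irradiated and non-irradiated drug-untreated signals.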

T1 sequence (Q13315 whole entry): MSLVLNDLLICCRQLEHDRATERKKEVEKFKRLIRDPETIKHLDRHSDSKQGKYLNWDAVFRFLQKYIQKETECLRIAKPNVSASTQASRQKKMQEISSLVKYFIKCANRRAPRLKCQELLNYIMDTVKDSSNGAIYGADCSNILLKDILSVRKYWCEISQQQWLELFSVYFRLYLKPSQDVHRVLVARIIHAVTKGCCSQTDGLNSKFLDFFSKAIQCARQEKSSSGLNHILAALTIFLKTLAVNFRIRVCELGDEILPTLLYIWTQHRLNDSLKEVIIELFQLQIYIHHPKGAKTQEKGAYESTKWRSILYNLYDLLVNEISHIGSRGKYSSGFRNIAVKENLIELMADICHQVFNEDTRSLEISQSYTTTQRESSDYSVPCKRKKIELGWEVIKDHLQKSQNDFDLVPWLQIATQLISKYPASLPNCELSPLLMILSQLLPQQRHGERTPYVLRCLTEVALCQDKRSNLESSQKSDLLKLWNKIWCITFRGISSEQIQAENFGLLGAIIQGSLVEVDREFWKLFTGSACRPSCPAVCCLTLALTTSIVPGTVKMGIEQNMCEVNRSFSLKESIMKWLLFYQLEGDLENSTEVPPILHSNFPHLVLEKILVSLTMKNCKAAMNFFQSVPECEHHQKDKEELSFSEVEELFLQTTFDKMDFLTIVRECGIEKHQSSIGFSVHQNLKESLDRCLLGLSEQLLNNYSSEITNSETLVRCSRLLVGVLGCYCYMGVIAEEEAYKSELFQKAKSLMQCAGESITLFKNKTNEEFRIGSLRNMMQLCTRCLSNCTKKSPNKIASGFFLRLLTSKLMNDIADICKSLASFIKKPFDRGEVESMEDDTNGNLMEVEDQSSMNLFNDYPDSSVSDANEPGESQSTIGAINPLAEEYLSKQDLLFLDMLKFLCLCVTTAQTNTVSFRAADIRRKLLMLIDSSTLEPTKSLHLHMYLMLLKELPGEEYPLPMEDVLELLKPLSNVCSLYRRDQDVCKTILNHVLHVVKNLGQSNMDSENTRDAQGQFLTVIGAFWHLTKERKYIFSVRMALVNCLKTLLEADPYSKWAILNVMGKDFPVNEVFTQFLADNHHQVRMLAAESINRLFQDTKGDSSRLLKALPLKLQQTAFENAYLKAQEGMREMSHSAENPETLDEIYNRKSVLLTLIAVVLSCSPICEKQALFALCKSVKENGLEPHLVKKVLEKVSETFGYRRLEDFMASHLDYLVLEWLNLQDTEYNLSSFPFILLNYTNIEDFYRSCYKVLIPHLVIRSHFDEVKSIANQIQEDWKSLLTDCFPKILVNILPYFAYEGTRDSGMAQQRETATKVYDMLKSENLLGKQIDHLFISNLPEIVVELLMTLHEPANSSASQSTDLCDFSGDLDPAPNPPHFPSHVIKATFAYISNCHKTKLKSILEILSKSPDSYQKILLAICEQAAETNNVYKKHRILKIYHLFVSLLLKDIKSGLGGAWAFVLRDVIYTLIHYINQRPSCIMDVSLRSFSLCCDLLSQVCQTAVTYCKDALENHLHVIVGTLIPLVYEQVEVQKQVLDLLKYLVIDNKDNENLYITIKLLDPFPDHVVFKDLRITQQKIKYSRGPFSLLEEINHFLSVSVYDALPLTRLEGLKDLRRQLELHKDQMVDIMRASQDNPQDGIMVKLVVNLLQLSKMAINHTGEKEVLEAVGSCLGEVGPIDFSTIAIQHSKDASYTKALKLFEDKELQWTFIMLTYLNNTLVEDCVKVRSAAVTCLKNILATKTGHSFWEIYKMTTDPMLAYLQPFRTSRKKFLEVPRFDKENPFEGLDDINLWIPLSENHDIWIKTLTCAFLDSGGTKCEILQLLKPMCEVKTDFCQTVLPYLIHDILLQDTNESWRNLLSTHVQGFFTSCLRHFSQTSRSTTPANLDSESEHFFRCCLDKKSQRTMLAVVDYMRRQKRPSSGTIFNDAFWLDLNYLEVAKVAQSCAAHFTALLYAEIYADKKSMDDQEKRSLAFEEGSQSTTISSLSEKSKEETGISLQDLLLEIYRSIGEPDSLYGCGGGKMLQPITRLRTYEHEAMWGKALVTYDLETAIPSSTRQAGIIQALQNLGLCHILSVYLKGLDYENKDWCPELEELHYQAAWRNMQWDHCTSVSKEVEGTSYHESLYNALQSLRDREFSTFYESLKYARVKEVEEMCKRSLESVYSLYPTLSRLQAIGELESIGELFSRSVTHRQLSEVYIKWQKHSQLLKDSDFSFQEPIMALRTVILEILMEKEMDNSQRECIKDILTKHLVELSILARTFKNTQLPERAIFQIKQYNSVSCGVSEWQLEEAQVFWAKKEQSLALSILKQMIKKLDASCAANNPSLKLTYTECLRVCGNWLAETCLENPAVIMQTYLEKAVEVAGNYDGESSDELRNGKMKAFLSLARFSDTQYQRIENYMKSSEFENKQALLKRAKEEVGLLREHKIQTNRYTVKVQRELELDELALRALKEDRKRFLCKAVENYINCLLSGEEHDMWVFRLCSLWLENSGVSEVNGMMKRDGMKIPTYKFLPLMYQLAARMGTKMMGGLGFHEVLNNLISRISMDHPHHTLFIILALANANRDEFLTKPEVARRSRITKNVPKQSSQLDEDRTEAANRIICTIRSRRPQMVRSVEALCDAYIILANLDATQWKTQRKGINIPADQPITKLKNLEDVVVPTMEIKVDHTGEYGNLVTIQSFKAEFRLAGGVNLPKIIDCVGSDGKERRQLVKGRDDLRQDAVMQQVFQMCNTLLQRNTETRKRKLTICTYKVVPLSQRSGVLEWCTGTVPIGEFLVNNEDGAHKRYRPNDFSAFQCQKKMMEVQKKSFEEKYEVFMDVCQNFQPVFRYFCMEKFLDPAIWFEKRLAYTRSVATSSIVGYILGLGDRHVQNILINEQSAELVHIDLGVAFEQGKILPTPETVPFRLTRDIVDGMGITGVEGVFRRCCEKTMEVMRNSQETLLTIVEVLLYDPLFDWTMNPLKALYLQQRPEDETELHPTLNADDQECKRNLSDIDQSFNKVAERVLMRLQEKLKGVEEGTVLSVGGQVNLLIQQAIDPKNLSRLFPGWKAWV

In the case of `Cc1ccnc(C(C)Nc2ccc3c(c2)Cc2cccc(-c4cc(N5CCOCC5)cc(=O)[nH]4)c2O3)n1` (stereo not shown) [Example 2-14-79, 6-(7-((1-(4-Methylpyrimidin-2-yl)ethyl)amino)-9H-xanthen-4-yl)-4-morpholino pyridin-2(1H)-one], the IC50 is reported as 0.1 to 0.5 µM.

In the case of `COCCN1CCCC(Nc2ccc3c(c2)Sc2cccc(-c4cc(N5CCOCC5)cc(=O)[nH]4)c2S3)C1` (stereo not shown) [Example 1-26-2, 6-(7-((1-(2-Methoxyethyl)piperidin-3-yl)amino)thianthren-1-yl)-4-morpholinopyridin-2(1H)-one], the IC50 is reported as < 0.1 µM.

With `CN(C)c1nccc(CNc2ccc3c(c2)Sc2cccc(-c4cc(N5CCOCC5)cc(=O)[nH]4)c2S3)n1` [Example 1-12-40, 6-(7-(((2-(Dimethylamino)pyrimidin-4-yl)methyl)amino)thianthren-1-yl)-4-morpholino pyridin-2(1H)-one] the IC50 was 0.1 to 0.5 µM.

`CN(C)CCN1CCC(Nc2ccc3c(c2)Sc2cccc(-c4cc(N5CCOCC5)cc(=O)[nH]4)c2S3)CC1` [Example 1-29-2, 6-(7-((1-(2-(Dimethylamino)ethyl)piperidin-4-yl)amino)thianthren-1-yl)-4-morpholinopyridin-2(1H)-one] showed an IC50 of 0.1 to 0.5 µM.

Work on `O=c1cc(N2CCOCC2)cc(-c2cccc3c2Oc2ccc(NCc4cncc(OC(F)F)c4)cc2C3)[nH]1` [Example 2-14-6, 6-(7-(((5-(Difluoromethoxy)pyridin-3-yl)methyl)amino)-9H-xanthen-4-yl)-4-morpholino pyridin-2(1H)-one] yielded an IC50 of 0.1 to 0.5 µM.

`CN(c1ccc2c(c1)Sc1cccc(-c3cc(N4CCOCC4)cc(=O)[nH]3)c1S2)C1CCCNC1` (stereo not shown) [Example 1-30, 6-(7-(methyl(piperidin-3-yl)amino)thianthren-1-yl)-4-morpholinopyridin-2(1H)-one] gave an IC50 of 0.5 to 2 µM.

With `Cn1cc(CNc2ccc3c(c2)Cc2cccc(-c4cc(N5CCOCC5)cc(=O)[nH]4)c2O3)ccc1=O` [Example 2-2-45, 1-Methyl-5-(((5-(4-morpholino-6-oxo-1,6-dihydropyridin-2-yl)-9H-xanthen-2-yl)amino)methyl) pyridin-2(1H)-one] the IC50 was 0.5 to 2 µM.

With `O=c1cc(N2CCOCC2)cc(-c2cccc3c2Oc2ccc(NC4CCN(CCc5ccccc5Cl)CC4)cc2C3)[nH]1` [Example 2-30-9, 6-(7-((1-(2-Chlorophenethyl)piperidin-4-yl)amino)-9H-xanthen-4-yl)-4-morpholino pyridin-2(1H)-one] the IC50 was 0.1 to 0.5 µM.

In the case of `COc1cncc(CNc2ccc3c(c2)Cc2ccnc(-c4cc(N5CCOCC5)cc(=O)[nH]4)c2O3)c1` [Example 2-41-1, 6-(7-(((5-Methoxypyridin-3-yl)methyl)amino)-5H-chromeno[2,3-c]pyridin-1-yl)-4-morpholinopyridin-2(1H)-one], the IC50 is reported as 0.1 to 0.5 µM.

With `CC1CCCN(CC(CO)Nc2ccc3c(c2)Sc2cccc(-c4cc(N5CCOCC5)cc(=O)[nH]4)c2S3)C1` (stereo not shown) [Example 1-37-1, 6-(7-((1-hydroxy-3-(3-methylpiperidin-1-yl)propan-2-yl)amino)thianthren-1-yl)-4-morpholinopyridin-2(1H)-one] the IC50 was 0.1 to 0.5 µM.

For `O=c1cc(N2CCOCC2)cc(-c2cccc3c2Sc2ccc(NC4CCCN(C5COC5)C4)cc2S3)[nH]1` (stereo not shown) [Example 1-24-6, 4-Morpholino-6-(7-((1-(oxetan-3-yl)piperidin-3-yl)amino)thianthren-1-yl) pyridin-2(1H)-one], the IC50 was 0.1 to 0.5 µM.

`O=c1cc(N2CCOCC2)cc(-c2cccc3c2Oc2ccc(NC4CCN(CCc5ccccc5)CC4)cc2C3)[nH]1` [Example 2-28-29, 4-Morpholino-6-(7-((1-phenethylpiperidin-4-yl)amino)-9H-xanthen-4-yl) pyridin-2(1H)-one] was tested, and the IC50 was 0.1 to 0.5 µM.

For `O=c1cc(N2CCOCC2)cc(-c2cccc3c2Oc2ccc(NC4CCN(CCCc5ccccc5)CC4)cc2C3)[nH]1` [Example 2-28-34, 4-Morpholino-6-(7-((1-(3-phenylpropyl)piperidin-4-yl)amino)-9H-xanthen-4-yl) pyridin-2(1H)-one], the IC50 was 0.5 to 2 µM.

With `O=c1cc(N2CCOCC2)cc(-c2cccc3c2Sc2ccc(N[C@@H]4COC[C@H]4N4CCOCC4)cc2S3)[nH]1` (relative stereo) [Example 1-60, Trans-4-morpholino-6-(7-((4-morpholinotetrahydrofuran-3-yl)amino)thianthren-1-yl)pyridin-2(1H)-one] the IC50 was < 0.1 µM.

With `Cc1ccc(C(Nc2ccc3c(c2)Sc2cccc(-c4cc(N5CCOCC5)cc(=O)[nH]4)c2S3)[C@@H]2CCCN2C)nc1` (single isomer, unassigned) [Example 1-56-2] the IC50 was 0.1 to 0.5 µM.

`O=c1cc(N2CCOCC2)cc(-c2cccc3c2Oc2ccc(NCc4cccc(C5CC5)n4)cc2C3)[nH]1` [Example 2-2-68, 6-(7-(((6-Cyclopropylpyridin-2-yl)methyl)amino)-9H-xanthen-4-yl)-4-morpholino pyridin-2(1H)-one] showed an IC50 of 0.1 to 0.5 µM.

Compound `COc1cc(CNc2ccc3c(c2)Sc2cccc(-c4cc(N5CCOCC5)cc(=O)[nH]4)c2S3)cnc1OC` [Example 1-12-7, 6-(7-(((5,6-Dimethoxypyridin-3-yl)methyl)amino)thianthren-1-yl)-4-morpholino pyridin-2(1H)-one] has an IC50 of 0.1 to 0.5 µM.

For `O=c1cc(N2CCOCC2)cc(-c2cccc3c2Sc2ccc(NC4CCN(C5CCCC5)C4)cc2S3)[nH]1` (stereo not shown) [Example 1-24-12, 6-(7-((1-Cyclopentylpyrrolidin-3-yl)amino)thianthren-1-yl)-4-morpholino pyridin-2(1H)-one], the IC50 was 0.1 to 0.5 µM.

`O=C(Nc1ccc2c(c1)Cc1cccc(-c3cc(N4CCOCC4)cc(=O)[nH]3)c1O2)c1cc(Br)ccn1` [Example 2-24, 4-bromo-N-(5-(4-morpholino-6-oxo-1,6-dihydropyridin-2-yl)-9H-xanthen-2-yl)picolinamide] was tested, and the IC50 was 0.5 to 2 µM.

In the case of `Cn1cc(-c2cncc(CNc3ccc4c(c3)Sc3cccc(-c5cc(N6CCOCC6)cc(=O)[nH]5)c3O4)c2)cn1` [Example 4-4-11, 6-(8-(((5-(1-Methyl-1H-pyrazol-4-yl)pyridin-3-yl)methyl)amino)phenoxathiin-4-yl)-4-morpholino pyridin-2 (1H)-one], the IC50 is reported as 0.1 to 0.5 µM.

`Cc1ccc(CNc2ccc3c(c2)Cc2ccnc(-c4cc(N5CCOCC5)cc(=O)[nH]4)c2O3)cn1` [Example 2-42-4, 6-(7-(((6-Methylpyridin-3-yl)methyl)amino)-5H-chromeno[2,3-c]pyridin-1-yl)-4-morpholinopyridin-2(1H)-one] showed an IC50 of 0.1 to 0.5 µM.

In the case of `Cc1ccnc(C(CF)Nc2ccc3c(c2)Sc2cccc(-c4cc(N5CCOCC5)cc(=O)[nH]4)c2S3)c1` (stereo not shown) [Example 1-12-133, 6(7-((2-Fluoro-1-(4-methylpyridin-2-yl)ethyl)amino)thianthren-1-yl)-4-morpholino pyridin-2(1H)-one], the IC50 is reported as 0.1 to 0.5 µM.

Compound `CCN(CC)CCNc1ccc2c(c1)Cc1cccc(-c3cc(N4CCOCC4)cc(=O)[nH]3)c1S2` [Example 3-4-4, 6-(7-((2-(Diethylamino)ethyl)amino)-9H-thioxanthen-4-yl)-4-morpholino pyridin-2(1H)-one] has an IC50 of 0.5 to 2 µM.

For `COc1ccc(CCN2CCC(Nc3ccc4c(c3)Cc3cccc(-c5cc(N6CCOCC6)cc(=O)[nH]5)c3O4)CC2)cn1` [Example 2-28-38, 6-(7-((1-(2-(6-Methoxypyridin-3-yl)ethyl)piperidin-4-yl)amino)-9H-xanthen-4-yl)-4-morpholino pyridin-2(1H)-one], the IC50 was 0.1 to 0.5 µM.

With `COc1cc(OC)nc(CN2CCC(Nc3ccc4c(c3)Cc3cccc(-c5cc(N6CCOCC6)cc(=O)[nH]5)c3O4)CC2)n1` [Example 2-28-20, 6-(7-((1-((4,6-Dimethoxypyrimidin-2-yl)methyl)piperidin-4-yl)amino)-9H-xanthen-4-yl)-4-morpholino pyridin-2(1H)-one] the IC50 was 0.1 to 0.5 µM.

With `O=c1cc(N2CCOCC2)cc(-c2cccc3c2Oc2ccc(NCc4cccc(C5CC5)n4)cc2S3)[nH]1` [Example 4-4-21, 6-(8-(((6-Cyclopropylpyridin-2-yl)methyl)amino)phenoxathiin-4-yl)-4-morpholino pyrdin-2(1H)-one] the IC50 was 0.1 to 0.5 µM.

Compound `CCCC(Nc1ccc2c(c1)Sc1cccc(-c3cc(N4CCOCC4)cc(=O)[nH]3)c1S2)c1cncc(OC)c1` (stereo not shown) [Example 1-12-26, 6-(7-((1-(5-Methoxypyridin-3-yl)butyl)amino)thianthren-1-yl)-4-morpholino pyridin-2 (1H)-one] has an IC50 of 0.1 to 0.5 µM.

With `Cc1ccc(C(Nc2ccc3c(c2)Sc2cccc(-c4cc(N5CCOCC5)cc(=O)[nH]4)c2S3)[C@@H]2CCCN2C)nc1` (single isomer, unassigned) [Example 1-56-3] the IC50 was < 0.1 µM.

In the case of `Cc1ccc(C(Nc2ccc3c(c2)Sc2cccc(-c4cc(N5CCOCC5)cc(=O)[nH]4)c2S3)C2CN(CCO)CCO2)nc1` (racemic) [Example 1-57-1, 6-(7-(((4-(2-hydroxyethyl)morpholin-2-yl)(5-methylpyridin-2-yl)methyl)amino)thianthren-1-yl)-4-morpholinopyridin-2(1H)-one], the IC50 is reported as < 0.1 µM.

`Cc1cccc(C(CO)Nc2ccc3c(c2)Cc2cccc(-c4cc(N5CCOCC5)cc(=O)[nH]4)c2O3)n1` (single isomer, unassigned) [Example 2-14-92-1, 6-(7-((2-hydroxy-1-(6-methylpyridin-2-yl)ethyl)amino)-9H-xanthen-4-yl)-4-morpholinopyridin-2(1H)-one] gave an IC50 of 0.5 to 2 µM.

Compound `COc1ccnc(C(C)Nc2ccc3c(c2)Cc2ccnc(-c4cc(N5CCOCC5)cc(=O)[nH]4)c2O3)c1` (stereo not shown) [Example 2-41-14] has an IC50 of 0.1 to 0.5 µM.

Work on `CNc1ncccc1CNc1ccc2c(c1)Cc1cccc(-c3cc(N4CCOCC4)cc(=O)[nH]3)c1O2` [Example 2-2-26, 6-(7-(((2-(Methylamino)pyridin-3-yl)methyl)amino)-9H-xanthen-4-yl)-4-morpholino pyridin-2(1H)-one] yielded an IC50 of 0.1 to 0.5 µM.

In the case of `Cc1ccc(C(Nc2ccc3c(c2)Sc2cccc(-c4cc(N5CCOCC5)cc(=O)[nH]4)c2S3)[C@H]2CCCN2C)nc1` (single isomer, unassigned) [Example 1-56-5], the IC50 is reported as < 0.1 µM.

In the case of `O=c1cc(N2CCOCC2)cc(-c2cccc3c2Oc2ccc(NC4CCN(CCc5ccccc5)C4)cc2S3)[nH]1` (stereo not shown) [Example 4-6-1, 4-Morpholino-6-(8-((1-phenethylpyrrolidin-3-yl)amino)phenoxathiin-4-yl)pyridin-2(1H)-one], the IC50 is reported as 0.1 to 0.5 µM.

From patent publication US9586951B2 (FUJIFILM Corporation, priority 2013, dated 2017)
